Results published in PMC9611758, “Bioactive Platinum(IV) Complexes Incorporating Halogenated Phenylacetates” (Molecules, 2022).
“Also recorded” adds a separate entry of the source. Read-outs that look alike come from different tables or passages of the source.

Tests used:
[1] = tested on: BE2-C neuroblastoma; set-up: method as in PMID 36142383; settings: MTT assay, 72 h; cited from earlier work
[2] = tested on: SJ-G2 glioblastoma; set-up: method as in PMID 36142383; settings: MTT assay, 72 h; cited from earlier work
[3] = tested on: MCF-7 breast; set-up: method as in PMID 36142383; settings: MTT assay, 72 h; cited from earlier work
[4] = tested on: Du145 prostate; set-up: method as in PMID 36142383; settings: MTT assay, 72 h; cited from earlier work
[5] = tested on: ADDP-resistant ovarian variant; set-up: method as in PMID 36142383; settings: MTT assay, 72 h; cited from earlier work
[6] = tested on: HT29 colon; set-up: method as in PMID 36142383; settings: MTT assay, 72 h; cited from earlier work
[7] = tested on: non-tumour derived MCF10A breast line; set-up: method as in PMID 36142383; settings: MTT assay, 72 h; cited from earlier work
[8] = tested on: A431 skin; set-up: method as in PMID 36142383; settings: MTT assay, 72 h; cited from earlier work
[9] = tested on: MIA pancreas; set-up: method as in PMID 36142383; settings: MTT assay, 72 h; cited from earlier work
[10] = tested on: H460 lung; set-up: method as in PMID 36142383; settings: MTT assay, 72 h; cited from earlier work
[11] = tested on: U87 glioblastoma; set-up: method as in PMID 36142383; settings: MTT assay, 72 h; cited from earlier work
[12] = tested on: A2780 ovarian; set-up: method as in PMID 36142383; settings: MTT assay, 72 h; cited from earlier work
[13] = tested on: panel of cell lines; assay: MTT growth inhibition assay, whole panel of cell lines; assay type: cell-based, human; settings: average over the cell lines tested, MTT assay, 72 h
[14] = tested on: ADDP-resistant ovarian variant; assay: MTT growth inhibition assay, ADDP; assay type: cell-based, human; settings: MTT assay, 72 h
[15] = tested on: HT29 colon; assay: MTT growth inhibition assay, HT29; assay type: cell-based, human; settings: MTT assay, 72 h
[16] = tested on: MIA pancreas; assay: MTT growth inhibition assay, MIA; assay type: cell-based, human; settings: 72 h
[17] = tested on: BE2-C neuroblastoma; assay: MTT growth inhibition assay, BE2-C; assay type: cell-based, human; settings: 72 h
[18] = tested on: non-tumour derived MCF10A breast line; assay: MTT growth inhibition assay, MCF10A; assay type: cell-based, human; settings: 72 h
[19] = tested on: U87 glioblastoma; assay: MTT growth inhibition assay, U87; assay type: cell-based, human; settings: 72 h
[20] = Reduction experiments with AsA by 1H-NMR and 1D-195Pt-NMR; assay type: physicochemical; settings: D2O, 37 °C; for T50% (approximate time at which 50% reduction occurs): 10 mM PBS (~7.4 pH); for extent of reduction 1 h after the final 1H-NMR experiment (1D-195Pt-NMR): regions −2800 and 400 ppm
Description: Platinum(IV) complexes are reduced to their platinum(II) precursors by intracellular biological reducing agents such as AsA or GSH in tumour cells. However, the precise mechanism by which reduction occurs is not fully understood. In this paper, reduction reaction experiments were undertaken on the synthesised platinum(IV) complexes, 1–8, with the aid of ^1H-NMR and 1D-^195Pt-NMR spectroscopy. The method used for the reduction reaction experiments was adapted from the literature without modifications. A total of 10 mM PBS (~7.4 pH) was selected as media, and AsA was used as the biological reducing agent to investigate the reduction property of 1–8. Prior to the reduction reaction experiments, a control was prepared where each metal complex was dissolved with PBS in D2O. 1D-^195Pt-NMR was measured within the regions of −2800 and 400 ppm (30 min per region), at 37 °C. This was undertaken to confirm that the PBS would not interfere with the reduction process of the metal complexes. […] The approximate time points for the studied complexes at which an estimated 50% reduction had occurred, in the presence of AsA, as represented by T50%, are summarised in Table 6.
The reduction properties of 1–8 were monitored using ^1H-NMR and 1D-^195Pt-NMR spectroscopy on a 400 MHz Bruker (Melbourne, VIC, Australia) Avance Spectrometer. A sequence of ^1H-NMR experiments was carried out for 1 h at 37 °C, followed by 1D-^195Pt-NMR within the regions of −2800 and 400 ppm. An amount of 10 mM PBS (~7.4 pH) was transferred to a vial and reduced to dryness through rotary evaporation. AsA (~1 mg) was combined with the metal complex (~5 mg) and transferred to the vial containing the dried PBS. A total of 600 µL of D2O was then added to the vial to dissolve the complex, AsA, and the PBS together.

[21] = tested on: A2780 ovarian; assay: MTT growth inhibition assay, A2780; assay type: cell-based, human; settings: 72 h
[22] = Lipophilicity by HPLC (log kw); assay type: physicochemical; settings: for log kw (y-intercept of log k versus [CH3CN] % plot, Figure S80): linear fit
Description: For lipophilicity measurements, HPLC was utilised instead of the traditional shake-flask method, as described previously. Recent studies have also reported the efficiency of HPLC in measuring the lipophilicity of compounds [79, 80]. Each complex was eluted under several isocratic ratios. A standard curve was generated to calculate the log value of the capacity factor (log k) according to Equation (1). Following Equation (2), the percentage of organic solvent (CH3CN) in the mobile phase from each isocratic run was plotted against log kw (Figure S80). Log kw is the chromatographic lipophilicity index or measure of lipophilicity of the complex, so a higher value corresponds to greater lipophilicity. Because the selected axial ligands in this study contain F, Cl, Br, and I, it was only appropriate to determine the influence of the halogens on the overall lipophilicity of the platinum(IV) complexes. […] Conversely, the least lipophilic complex was the phen derivative containing 4-FPA, 3, with a log kw of 0.25. Furthermore, for the phen derivatives, the order of increasing lipophilicity was 3 > 1 > 5 > 7, which corresponds to the order of increasing size of the halogens, F > Cl > Br > I. This pattern was also observed with the 5,6-Me2phen derivatives (4 > 2 > 6 > 8), thereby confirming that the halogens increased the order of lipophilicity accordingly based on their size.
For lipophilicity measurements, analytical HPLC was utilised. Elution profiles were acquired on an Agilent (Melbourne, VIC, Australia) Technologies 1260 Infinity instrument equipped with a Phenomenex Onyx^TM Monolithic C18-reverse phase column (100 × 4.6 mm, 5 µm pore size) (Sydney, NSW, Australia). The mobile phase consisted of solvents, A (0.06% TFA in d.i.H2O) and B (0.06% TFA in CH3CN/d.i.H2O (90:10)). Potassium iodide was used as an external dead volume marker to determine the dead time of the column. Retention times (TR) were measured at varying isocratic ratios ranging from 30 to 36% of solvent B at 1 mL·min^−1 mL. An injection volume of 10 µL was utilised. Capacity factors were determined according to Equation (1):(1) k=(TR−T0)/T0 where k is the capacity factor, TR is the retention time of the analyte, and T0 represents the dead time. A minimum of four different mobile compositions were used for each complex to calculate k. A linear plot was generated of log k against the concentration of CH3CN in the mobile phase to determine the value of log kw expressed by Equation (2):(2) logk=Sφ+logkw where S is the slope, φ is the concentration of the CH3CN in the mobile phase, and log kw represents the capacity factor of the complex in 100% d.i.H2O. Extrapolation of this linear plot to the y-intercept indicates the log kw value.

[23] = tested on: H460 lung; assay: MTT growth inhibition assay, H460; assay type: cell-based, human; settings: 72 h
[24] = tested on: SJ-G2 glioblastoma; assay: MTT growth inhibition assay, SJ-G2; assay type: cell-based, human; settings: 72 h
[25] = tested on: A431 skin; assay: MTT growth inhibition assay, A431; assay type: cell-based, human; settings: 72 h
[26] = tested on: HT29 colon cells; assay: ROS detection assay (DCFH-DA); assay type: cell-based, human; settings: HT29 colon cells, treated at GI50 concentration (TBHP positive control 20 μM)
Description: Although ROS is required for cancer cell function and progression, it can induce programmed cell death or apoptosis. […] In this study, we report the ROS activity of the studied platinum(IV) complexes, 1–8, together with the individual axial ligands (4-CPA, 4-FPA, 4-BPA, and 4-IPA) in the human cancer cell line, HT29 colon (Figure 19, Table 8, and Figure S95). The ROS potential of their platinum(II) and platinum(IV) precursors in the same cell line is also presented for comparison purposes (Table 8). […] HT29 colon cells were stained by DCFH-DA and then treated with the complexes at each specific GI50 concentration. Upon ROS production, the DCFH-DA produced dichlorodihydrofluorescein, a fluorescent product. The measured fluorescence was, therefore, proportional to the produced ROS.
To investigate the presence of ROS in treated cells, a DCFDA/H2DCFDA-cellular ROS Assay Kit (Abcam, Cambridge, MA, USA) was used, as previously described. A total of 25,000 cells/mL of HT29 cells in DMEM were seeded in 96-well plates. Cells were washed with 1X kit buffer, and then stained with 25 μM 2′,7′-dichlorofluorescein diacetate (DCFH-DA) and incubated for 45 min. DCFH-DA was then removed, and cells were then re-washed with 1X kit buffer, after which phenol red free media was added. Cells were then treated with a GI50 drug concentration for each complex. The plates were directly scanned to measure fluorescence (relative fluorescence units (RFU)) at different time points using the Glo-Max®-Multimode microplate reader (Promega Corporation, Alexandra, VIC, Australia) at an excitation/emission of 485/535 nm. To generate the positive control (20 μM tert-butyl hydroperoxide (TBHP)), cells were washed with 1X kit buffer, and stained with DCFDA (25 μM) for 45 min; this was removed and TBHP was added in phenol red free media, and the resulting solution was scanned as described above.

[27] = tested on: MCF-7 breast; assay: MTT growth inhibition assay, MCF-7; assay type: cell-based, human; settings: for GI50: MTT assay, 72 h
[28] = tested on: Du145 prostate; assay: MTT growth inhibition assay, Du145; assay type: cell-based, human; settings: MTT assay, 72 h

Structure (SMILES): N.N.O=C([O-])C1(C(=O)[O-])CCC1.[Pt+2] [Carboplatin, cis-diammine(1,1-cyclobutanedicarboxylato) platinum(II)]
- GI50 [1]: 19000 nM
- GI50 [2]: 5700 ± 200 nM
- GI50 [3]: > 50000 nM
- GI50 [4]: 15000 nM
- GI50 [5]: > 50000 nM
- GI50 [6]: > 50000 nM
- GI50 [7]: > 50000 nM
- GI50 [8]: 24000 nM
- GI50 [9]: > 50000 nM
- GI50 [10]: 14000 nM
- GI50 [11]: > 50000 nM
- GI50 [12]: 9200 ± 2900 nM

Structure (SMILES): Cc1c(C)c2c3c4c1=CC=C[N]4[Pt+2]([OH])([O]C(=O)Cc1ccc(Cl)cc1)[N]3C=CC=2.N[C@H]1CCCC[C@@H]1N [Complex 2, [Pt^IV(5,6-Me2phen)(SS-DACH)(4-CPA)(OH)]^2+]
- GI50 [13]: 75 ± 30 nM
- GI50 [14]: 26 ± 4.5 nM
- GI50 [15]: 22 ± 9.2 nM
- GI50 [16]: 28 ± 5.5 nM
- GI50 [17]: 110 ± 18 nM
- GI50 [18]: 35 ± 7.8 nM
- GI50 [19]: 79 ± 30 nM
- T50% (approximate time at which 50% reduction occurs) ([20]; 1H-NMR): 20 to 25 min
- time at which reduction starts ([20]; PBS, 1H-NMR): 5 min
- extent of reduction at 1 h (1H-NMR) ([20]; PBS, 1 h): almost reduced
- extent of reduction 1 h after the final 1H-NMR experiment (1D-195Pt-NMR) ([20]; PBS): entirely reduce back to its platinum(II) precursor, 56MESS; also recorded: complete reduction
- GI50 [21]: 43 ± 10 nM
- log kw (y-intercept of log k versus [CH3CN] % plot, Figure S80) [22]: 0.9477
- GI50 [23]: 200 ± 170 nM
- GI50 [24]: 100 ± 45 nM
- GI50 [25]: 41 ± 8 nM
- ROS production 24 h [26]: 358 ± 21 RFU
- ROS production 48 h [26]: 508 ± 16 RFU
- ROS production 72 h [26]: 564 ± 10 RFU
- fold less potent than 56MESS [27]: ~2 fold
- GI50 [27]: 180 ± 77 nM
- GI50 [28]: 33 ± 21 nM

Structure (SMILES): N[C@H]1CCCC[C@@H]1N.O=C(Cc1ccc(I)cc1)[O][Pt+2]1([OH])[N]2C=CC=c3ccc4c(c32)[N]1C=CC=4 [Complex 7, [Pt^IV(phen)(SS-DACH)(4-IPA)(OH)]^2+]
- GI50 [13]: 432 ± 60 nM
- GI50 [14]: 280 ± 24 nM
- GI50 [15]: 220 ± 33 nM
- GI50 [16]: 360 ± 40 nM
- GI50 [17]: 680 ± 38 nM
- GI50 [18]: 280 ± 30 nM
- GI50 [19]: 1010 ± 95 nM
- T50% (approximate time at which 50% reduction occurs) ([20]; 1H-NMR): 30 min
- extent of reduction 1 h after the final 1H-NMR experiment (1D-195Pt-NMR) ([20]; PBS): partial reduction; also recorded: traces of platinum(IV) species were still observed
- GI50 [21]: 280 ± 42 nM
- log kw ([22]; chromatographic lipophilicity index, extrapolated to 100% d.i.H2O): 0.90
- log kw (y-intercept of log k versus [CH3CN] % plot, Figure S80) [22]: 0.895
- GI50 [23]: 380 ± 59 nM
- GI50 [24]: 590 ± 23 nM
- GI50 [25]: 500 ± 180 nM
- ROS production 24 h [26]: 211 ± 9.1 RFU
- ROS production 48 h [26]: 281 ± 12 RFU
- ROS production 72 h [26]: 322 ± 17 RFU
- GI50 [27]: 490 ± 134 nM
- GI50 [28]: 110 ± 25 nM

Structure (SMILES): O=C1[O][Pt]2([NH][C@@H]3CCCC[C@H]3[NH]2)[O]C1=O (relative stereo) [Oxaliplatin, trans-L-(1R,2R-diaminocyclohexane) oxalatoplatinum(II)]
- GI50 [1]: 900 ± 200 nM
- GI50 [2]: 3000 ± 1200 nM
- GI50 [3]: 500 ± 100 nM
- GI50 [4]: 2900 ± 400 nM
- GI50 [5]: 800 ± 100 nM
- GI50 [6]: 900 ± 200 nM
- GI50 [8]: 4100 ± 500 nM
- GI50 [9]: 900 ± 200 nM
- GI50 [10]: 1600 ± 100 nM
- GI50 [11]: 1800 ± 200 nM
- GI50 [12]: 160 ± 100 nM
